Data from patent publication US12377070B2, “Substituted sulfoximine derivatives” (CADILA HEALTHCARE LIMITED, priority 2019, dated 2025).
Counter-ions that a name gives are not always drawn. Like-named read-outs stand apart in the source and are kept apart here.

System: IL-1β
Assay: In vitro IL-1β inhibition in PMA-differentiated, LPS-primed, ATP-stimulated THP1 monocytes
Type: cell-based
Conditions: primed with 500 ng/mL LPS 4 hrs, compound 30 min, 5 mM ATP 1 hr, IL-1b in supernatant, read-out: IC50 (in vitro IL-1β inhibitory activity)
Method: THP1 monocytes were differentiated with PMA (100 ng/mL) and incubated at 37° C. for 20 hours in presence of 5% CO2. 2×10^5 differentiated cells were plated per well of 96 well tissue culture plates. The cells were primed using 500 ng/mL Lipopolysaccharide and incubating for 4 hrs under the same condition. The cells were then treated with various concentrations of the compounds for 30 min followed by treatment with 5 mM ATP for 1 hr. The supernatants were collected and analysed by IL-1b (Mabtech Cat #3415-1H-20) or TNF-a (Mabtech; Cat #3510-1H-20) detection kit. The data were analyzed using GraphPad Prism V7.0. Dose Response Curve (DRC) was constructed to determine the IC50 value by fitting percentage […] data to the GraphPad Prism using nonlinear regression analysis.

[1] = Homo sapiens, THP-1, THP1 cells differentiated with PMA 100 ng/mL

| IC50 [1] [µM] | Compound | also measured |
| --- | --- | --- |
| 19 | CC(C)(C)OC(=O)N1CCC[C@@]1(C)/C=C/S(=O)(=NC#N)NC(=O)Nc1c2c(cc3c1CCC3)CCC2 (stereo partly drawn) [Example 3, tert-butyl (2S)-2-((E)-2-(N′-cyano-N-((1,2,3,5,6,7-hexahydro-s-indacen-4-yl)carbamoyl)sulfamidimidoyl)vinyl)-2-methylpyrrolidine-1-carboxylate] | – |
| – | C[C@@]1(/C=C/S(=O)(=NC#N)NC(=O)Nc2c3c(cc4c2CCC4)CCC3)CCCN1 (stereo partly drawn) [Example 4, (E)-N′-cyano-N-((1,2,3,5,6,7-hexahydro-s-indacen-4-yl)carbamoyl)-2-((S)-2-methylpyrrolidin-2-yl)ethene-1-sulfonimidamide hydrochloride] | IC50 (THP1 cells differentiated with PMA 100 ng/mL, hydrochloride): 20 µM |
| 1.5 | CN1CCC[C@@]1(C)/C=C/S(=O)(=NC#N)NC(=O)Nc1c2c(cc3c1CCC3)CCC2 (stereo partly drawn) [Example 7, (E)-N′-cyano-2-((S)-1,2-dimethylpyrrolidin-2-yl)-N-((1,2,3,5,6,7-hexahydro-s-indacen-4-yl)carbamoyl)ethene-1-sulfonimidamide] | – |
| 12 | N#CN=S(=O)(/C=C/[C@H]1CCCN1S(=O)(=O)C1CCCCC1)NC(=O)Nc1c2c(cc3c1CCC3)CCC2 (stereo partly drawn) [Example 8, (E)-N′-cyano-2-((R)-1-(cyclohexylsulfonyl)pyrrolidin-2-yl)-N-((1,2,3,5,6,7-hexahydro-s-indacen-4-yl)carbamoyl)ethene-1-sulfonimidamide] | – |
| 11 | N#CN=S(=O)(/C=C/[C@H]1CCCN1S(=O)(=O)c1ccccc1C#N)NC(=O)Nc1c2c(cc3c1CCC3)CCC2 (stereo partly shown) [Example 9] | – |
| 6.4 | N#CN=S(=O)(/C=C/[C@H]1CCCN1)NC(=O)Nc1c2c(cc3c1CCC3)CCC2 (stereo partly drawn) [Example 10, (E)-N′-cyano-N-((1,2,3,5,6,7-hexahydro-s-indacen-4-yl)carbamoyl)-2-((R)-pyrrolidin-2-yl)ethene-1-sulfonimidamide hydrochloride] | – |
| 2.3 | CN1CCC[C@@H]1/C=C/S(=O)(=NC#N)NC(=O)Nc1c2c(cc3c1CCC3)CCC2 (stereo partly drawn) [Example 11, (E)-N′-cyano-N-((1,2,3,5,6,7-hexahydro-s-indacen-4-yl)carbamoyl)-2-((R)-1-methylpyrrolidin-2-yl)ethene-1-sulfonimidamide] | – |
| 4 | CC(C)(C)OC(=O)N1CCC[C@]1(C)/C=C/S(=O)(=NC#N)NC(=O)Nc1c2c(cc3c1CCC3)CCC2 (stereo partly drawn) [Example 13, tert-butyl (2R)-2-((E)-2-(N′-cyano-N-((1,2,3,5,6,7-hexahydro-s-indacen-4-yl)carbamoyl)sulfamidimidoyl)vinyl)-2-methylpyrrolidine-1-carboxylate] | – |
| 9 | C[C@]1(/C=C/S(=O)(=NC#N)NC(=O)Nc2c3c(cc4c2CCC4)CCC3)CCCN1 (stereo partly drawn) [Example 14, (E)-N′-cyano-N-((1,2,3,5,6,7-hexahydro-s-indacen-4-yl)carbamoyl)-2-((R)-2-methylpyrrolidin-2-yl)ethene-1-sulfonimidamide hydrochloride] | – |
| 2.1 | CN1CCC[C@]1(C)/C=C/S(=O)(=NC#N)NC(=O)Nc1c2c(cc3c1CCC3)CCC2 (stereo partly drawn) [Example 15, (E)-N′-cyano-2-((R)-1,2-dimethylpyrrolidin-2-yl)-N-((1,2,3,5,6,7-hexahydro-s-indacen-4-yl)carbamoyl)ethene-1-sulfonimidamide] | – |
| 11 | CC(C)N1CCC[C@@]1(C)/C=C/S(=O)(=NC#N)NC(=O)Nc1c2c(cc3c1CCC3)CCC2 (stereo partly drawn) [Example 17, (E)-N′-cyano-N-((1,2,3,5,6,7-hexahydro-s-indacen-4-yl)carbamoyl)-2-((S)-1-isopropyl-2-methylpyrrolidin-2-yl)ethene-1-sulfonimidamide] | – |
| 18 | C[C@@]1(/C=C/S(=O)(=NC#N)NC(=O)Nc2c3c(cc4c2CCC4)CCC3)CCCN1C1CCCC1 (stereo partly drawn) [Example 18, (E)-N′-cyano-2-((S)-1-cyclopentyl-2-methylpyrrolidin-2-yl)-N-((1,2,3,5,6,7-hexahydro-s-indacen-4-yl)carbamoyl)ethene-1-sulfonimidamide] | – |
| 4.6 | C[C@@]1(/C=C/S(=O)(=NC#N)NC(=O)Nc2c3c(cc4c2CCC4)CCC3)CCCN1C1CCC1 (stereo partly drawn) [Example 19, (E)-N′-cyano-2-((S)-1-cyclobutyl-2-methylpyrrolidin-2-yl)-N-((1,2,3,5,6,7-hexahydro-s-indacen-4-yl)carbamoyl)ethene-1-sulfonimidamide] | – |
| – | C[C@@]1(/C=C/S(=O)(=NC#N)NC(=O)Nc2c3c(cc4c2CCC4)CCC3)CCCN1 (stereo partly drawn) [Example 20, (E)-N′-cyano-N-((1,2,3,5,6,7-hexahydro-s-indacen-4-yl)carbamoyl)-2-((S)-2-methylpyrrolidin-2-yl)ethene-1-sulfonimidamide] | IC50 (THP1 cells differentiated with PMA 100 ng/mL): 3.2 µM |
| 4.6 | C[C@@]1(/C=C/S(=O)(=NC#N)NC(=O)Nc2c3c(cc4c2CCC4)CCC3)CCCN1CC1CC1 (stereo partly drawn) [Example 21, (E)-N′-cyano-2-((S)-1-(cyclopropylmethyl)-2-methylpyrrolidin-2-yl)-N-((1,2,3,5,6,7-hexahydro-s-indacen-4-yl)carbamoyl)ethene-1-sulfonimidamide] | – |
| – | C[C@@]1(/C=C/S(=O)(=NC#N)NC(=O)Nc2c3c(cc4c2CCC4)CCC3)CCCN1 (stereo partly drawn) [Example 22, (E)-N′-cyano-N-((1,2,3,5,6,7-hexahydro-s-indacen-4-yl)carbamoyl)-2-((S)-2-methylpyrrolidin-2-yl)ethene-1-sulfonimidamide 2,2,2-trifluoroacetate] | IC50 (THP1 cells differentiated with PMA 100 ng/mL, 2,2,2-trifluoroacetate): 8.9 µM |
| 15 | CC(C)CN1CCC[C@@]1(C)/C=C/S(=O)(=NC#N)NC(=O)Nc1c2c(cc3c1CCC3)CCC2 (stereo partly drawn) [Example 24, (E)-N′-cyano-N-((1,2,3,5,6,7-hexahydro-s-indacen-4-yl)carbamoyl)-2-((S)-1-isobutyl-2-methylpyrrolidin-2-yl)ethene-1-sulfonimidamide] | – |
| 19 | CC(=O)N1CCC[C@@]1(C)/C=C/S(=O)(=NC#N)NC(=O)Nc1c2c(cc3c1CCC3)CCC2 (stereo partly drawn) [Example 25, (E)-2-((S)-1-acetyl-2-methylpyrrolidin-2-yl)-N′-cyano-N-((1,2,3,5,6,7-hexahydro-s-indacen-4-yl)carbamoyl)ethene-1-sulfonimidamide] | – |
| 19 | CCN1CCC[C@@]1(C)/C=C/S(=O)(=NC#N)NC(=O)Nc1c2c(cc3c1CCC3)CCC2 (stereo partly drawn) [Example 26, (E)-N′-cyano-2-((S)-1-ethyl-2-methylpyrrolidin-2-yl)-N-((1,2,3,5,6,7-hexahydro-s-indacen-4-yl)carbamoyl)ethene-1-sulfonimidamide] | – |
| 15 | C[C@@]1(/C=C/S(=O)(=NC#N)NC(=O)Nc2c3c(cc4c2CCC4)CCC3)CCCN1Cc1nccs1 (stereo partly drawn) [Example 29, (E)-N′-cyano-N-((1,2,3,5,6,7-hexahydro-s-indacen-4-yl)carbamoyl)-2-((S)-2-methyl-1-(thiazol-2-ylmethyl)pyrrolidin-2-yl)ethene-1-sulfonimidamide] | – |
| 9.2 | C[C@@]1(/C=C/S(=O)(=NC#N)NC(=O)Nc2c3c(cc4c2CCC4)CCC3)CCCN1C(N)=O (stereo partly drawn) [Example 31, (2S)-2-((E)-2-(N′-cyano-N-((1,2,3,5,6,7-hexahydro-s-indacen-4-yl)carbamoyl)sulfamidimidoyl)vinyl)-2-methylpyrrolidine-1-carboxamide] | – |
| 19 | CC(C)(C)OC(=O)N1CCCC1/C=C/S(=O)(=NC#N)NC(=O)Nc1c2c(cc3c1CCC3)CCC2 [Example 34, tert-butyl (2R)-2-((E)-2-(N′-cyano-N-((1,2,3,5,6,7-hexahydro-s-indacen-4-yl)carbamoyl)sulfamidimidoyl)vinyl)pyrrolidine-1-carboxylate] | – |
